Measured values as given in article PMC4351682, “Formononetin inhibits enterovirus 71 replication by regulating COX- 2/PGE2 expression” (Virology Journal, 2015).

What was measured:
ERK = test: Western blot of EV71-induced phosphorylation of ERK in SK-N-SH cells; format: cell-based; conditions: pretreatment 24 h, formononetin 14.91 μmol/L, pirodavir 1.08 μmol/L, EV71 15 min
Procedure: Figure 3 Formononetin but not pirodavir reduces the phosphorylation of ERK (A), p38 (B), and JNK (C) induced by EV71 infection. SK-N-SH cells (9 × 10^5 cells/well) were plated into 6-well culture plates. The cells were then pretreated with formononetin (14.91 μmol/L) and pirodavir (1.08 μmol/L), respectively. After 24 h, the cells were mock-infected or infected with 4.8 × 10^5 pfu/well of EV71 (SHZH98) for 15 min (A), 10 min (B), and 30 min (C), respectively. The cells were harvested and ERK (A) p-ERK (A), p38 (B), p-p38 (B), JNK (C), and p-JNK (C) were detected by western blot.
Cells were lysed in the M-PER mammalian protein extraction reagent (Thermo, Rockford, IL) containing halt protease inhibitor single-use cocktail (Thermo). The protein concentration was determined by the BCA reagents (Thermo). About 10 μg proteins were denatured and applied to sodium dodecyl sulfate-polyacrylamide gel electrophoresis (SDS-PAGE). The electrophoresis products were transferred to a polyvinyl idenefluoride (PVDF) film and PVDF membranes were then incubated at room temperature with specific primary antibody. After a standard washing, membranes were incubated with horse radish peroxidase (HRP)-labeled secondary antibody. The assay developed using a chemiluminescent substrate. […]

EV71 VP1 RNA = test: One-step qRT-PCR of EV71 VP1 RNA in SK-N-SH cells; format: cell-based, enterovirus 71; conditions: EV71 SHZH98 480 pfu/well, 24 h treatment
Source text: Figure 2 The antiviral effect of formononetin and pirodavir against EV71 in SK-N-SH cells. (A) Formononetin and pirodavir reduced the expression of EV71 VP1 protein in SK-N-SH cells by western blot assay. (B) Formononetin and pirodavir reduced the expression of EV71 VP1 protein in SK-N-SH cells by immunofluorescence assay. Cells were examined using a fluorescence microscopy (×100). (C) Formononetin and pirodavir reduced the expression of EV71 VP1 RNA by one-step qRT-PCR assay. *P < 0.001 ^# P < 0.05.
SK-N-SH cells (9 × 10^5cells/well) were plated into 6-well culture plates for incubation of 16 h. The medium was removed and cells were infected with EV71 (SHZH98) of 480 pfu/well. After 2 h, various concentrations of formononetin were supplemented for incubation of another 24 h. The total RNA of the infected cells was extracted using the RNeasy Mini kit (QIAGEN) according to the manufacturer’s instructions. The one-step qRT-PCR was performed with SuperScript III Platinum SYBR Green One-step RT PCR Kit (Invitrogen) using the ABI 7500 Fast Real-Time PCR system (Applied Biosystems). The mRNA expression of EV71 VP1 was detected with sense primer 5’-[…]-3’ and antisense primer 5’-[…]-3’ targeting a conserved region of the VP1 gene. The β-actin mRNA was detected using sense primers 5’-TGACGGGGT CACCCACA CTGTGCCCATCTA-3’ and antisense primer 5’-CTAGAAGCATTTG CGGTGGACG ATG-3’.

EV71 (SHZH98) = test: Time course assay (CPE) in SK-N-SH cells; format: cell-based, enterovirus 71; conditions: for Reduction of virus-induced CPE, time course: CPE at 48 h
Procedure: Figure 1 The chemical structure of formononetin and time course assay. (A) The illustration of the protocol of viral adsorption and treatment with formononetin and pirodavir. SK-N-SH cells were infected with 80 pfu/well of EV71 (SHZH98). Formononetin (9.21 μM) and pirodavir (0.84 μM) was added at the indicated times, respectively. […] The cytopathic effect (CPE) assay was shown. (C) The chemical structure of formononetin.
The antiviral activity of formononetin was examined at different time periods before and after viral infection as shown in Figure 1A. Briefly, cells (3 × 10^4 cells/well) were seeded and incubated for 16 h. The cell monolayer was then infected with EV71 of 80 pfu/well. Different concentrations of formononetin were supplemented into cells following the protocol. Cells were then incubated for another 48 h and assayed with CPE assay.

PGE2 = PGE2 release assay (EIA) in EV71-infected SK-N-SH cells; format: cell-based; conditions: pretreatment 24 h, formononetin 14.91 μmol/L, pirodavir 1.08 μmol/L, supernatant at 24 h p.i.
Procedure: Figure 4 Formononetin could inhibit EV71-induced COX-2 expression and PGE 2 production. (A) Formononetin but not pirodavir can reduce the expression of COX-2 induced by EV71 infection. SK-N-SH cells were mock-infected or infected with 480 pfu/well of EV71 (SHZH98) for 2 h. The cells were then treated with formononetin (14.91 μmol/L) and pirodavir (1.08 μmol/L), respectively, for 24 h. The cells were harvested and EV71-VP1 and COX-2 were examined by western blot. (B) Formononetin but not pirodavir can reduce the release of PGE2 stimulated by EV71 infection. SK-N-SH cells were pretreated with formononetin (14.91 μmol/L) or pirodavir (1.08 μmol/L) for 24 h. The cells were infected with 4.8 × 10^5 pfu/well of EV71 (SHZH98). At 24 h p.i., the culture supernatants were harvested for PGE2 release assay. For the detection of PGE2 release, SK–N–SH cells (3 × 10^5 cells/well) were seeded into 24-well culture plates and were incubated for 16 h. And then the cells were serum-deprived for 24 h and incubated with EV71 for the indicated time intervals. When drugs were used, they were added 24 h prior to the application of EV71. After treatment, the supernatants were harvested. The supernatant from each sample was assayed using a PGE2 EIA kit (AMEKO) following the manufacturer’s instruction. […] The absorbance of each well was measured at 450 nm.

COc1ccc(-c2coc3cc(O)ccc3c2=O)cc1 [Formononetin]
EV71-stimulated phosphorylation of ERK (ERK): significantly attenuated
Levels of EV71 RNA (RT-qPCR) (EV71 VP1 RNA): dose-dependently decreased
Reduction of virus-induced CPE, time course (EV71 (SHZH98); formononetin 9.21 μM added at 24 and 12 h before, and 0 to 6 h after EV71 infection): able to effectively reduce virus-induced CPE
Reduction of virus-induced CPE, time course (EV71 (SHZH98); formononetin 9.21 μM added at −1, 9, and 12 h of EV71 infection): did not exert this effect
EV71-stimulated PGE2 release (PGE2): attenuated

CCOC(=O)c1ccc(OCCC2CCN(c3ccc(C)nn3)CC2)cc1 [Pirodavir, reference compound]
EV71-stimulated phosphorylation of ERK (ERK): not
Levels of EV71 RNA (RT-qPCR) (EV71 VP1 RNA): decrease
Reduction of virus-induced CPE, time course: effective time of addition (EV71 (SHZH98); pirodavir 0.84 μM, effective 0–9 h p.i., not before or during the infection): functioned only after viral infection (0–9 h p.i.)
EV71-stimulated PGE2 release (PGE2): not
